Laboratory results published in patent US20250003877A1, “Silyl Bridged Dyes” (priority 2021, published 2025).
Like-named read-outs stand apart in the source and are kept apart here.

Experiments:
[1] = assay type: physicochemical
Text: Strain-promoted lowering of the Si σ* energy in cyclic silanes is another approach to red-shift emission. Treatment of 1-1 with cyclohexyl dichlorosilane yielded the expected Si-rhodamine dye (Scheme 1A). However, the reactions with the corresponding five and four-membered ring analogs yielded many side products. The cyclopentyl analog 028 was obtained in good yield through an alternate synthetic pathway (Scheme 4), but the four-membered ring analog could not be isolated by either route. The silacyclopentyl analog is red-shifted compared to 001 and compound 014, consistent with a strain-induced LUMO-lowering effect (Table 3).
Scheme 10. Instability of silacyclopentyl dye 028 in solution. Proposed ring-opened product in methanol (the solvent used for HRMS analysis).

[2] = target: T1, SNAP-tag (pSNAPf-H2B) in HeLa cells (Homo sapiens, UniProt P16455, A127T/A154D/C150Q/C62A/E30R/G131K/G132T/G153L/K125A/K32I/L33F/M134L/N157G/Q115S/Q116H/R128A/R135S/S151G/S152D/S159E); experiment: Live cell imaging of SNAP-tag-expressing cells with Si-bridge dyes; assay type: cell-based; details: 3 μM dye, 30 min, 37° C., washed, HeLa transfected with pSNAPf-H2B
T1 construct: host or cells: HeLa cells, transient transfection with Lipofectamine 2000
T1 sequence (P16455 1-182 E30R/K32I/L33F/C62A/Q115S/Q116H/K125A/A127T/R128A/G131K/G132T/M134L/R135S/C150Q/S151G/S152D/G153L/A154D/N157G/S159E limits assumed): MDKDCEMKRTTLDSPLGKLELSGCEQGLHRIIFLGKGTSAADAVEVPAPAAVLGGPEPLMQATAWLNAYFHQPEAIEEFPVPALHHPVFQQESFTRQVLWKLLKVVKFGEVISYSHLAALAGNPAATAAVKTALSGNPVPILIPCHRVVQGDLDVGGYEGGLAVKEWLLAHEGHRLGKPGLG
Experimental: HeLa cells were seeded in 35 mm glass bottom dishes (Cellvis, catalog no. D35-28-O-N), and transfected with […] control plasmid (Addgene #101124). Transient transfections were performed using Lipofectamine 2000 (Invitrogen, catalog no. 1168019) following the manufacturer's instructions. HeLa cell labeling and confocal imaging were performed 24 hr after transfection. Labeling with SNAP-Cell® 647 SiR (New England Biolabs, catalog no. […]) and new dyes 065 and 066 containing benzylguanine SNAP-tag ligands were performed following the manufacturer's instructions. SNAP-tag is another popular system for labeling fusion proteins. SNAP-tag is more promiscuous towards its substrates than HaloTag, and thus it was anticipated that the relative fluorogenic behavior for each Si-bridge dye isomer would differ from the stark facial selectivity results seen above with Hoechst probes and HaloTag. Briefly, cells were incubated with 3 μM dye in cell culture medium for 30 min at 37° C. The cells were then washed three times with tissue culture medium and incubated in fresh medium for 30 minutes. The medium was replaced one more time to remove unreacted […] before imaging. […] Dyes fluorescing in the Cy5 channel were excited with the HeNe (633 nm) laser at a 15% intensity and detected through a 640-615 band pass filter and […] pinhole. […]

[3] = test system: hairpin DNA oligonucleotide (hpDNA); experiment: Photophysical properties after 2 h treatment with hairpin DNA (hpDNA); assay type: physicochemical; details: for Brightness (ε × ϕ) / ε (M^−1 cm^−1) / λem (nm) / λex (nm) / ϕ: +30 μM hpDNA, 2 h; for brightness: in the presence of 30 μM hpDNA
Experimental: Absorption and fluorescence spectra were measured on a Horiba Duetta fluorescence and absorbance spectrometer in quartz cuvettes (Starna Cells, catalog #3-Q-10). Extinction coefficients were calculated from plots of absorption versus concentration. Quantum yields were measured on a Hamamatsu Quantaurus QY C-11347-11 absolute quantum yield integrating sphere spectrometer at absorption values of <0.1 in side-arm quartz cuvettes (Hamamatsu cat #A10095-02). All measurements were performed in PBS (9.0 g/l NaCl, 0.795 g/l Na2HPO4, 0.144 g/l KH2PO4, pH 7.4, Corning cat #21-040-CV), ethanol, or 0.1% TFA/ethanol and prepared from stock solutions of dyes in DMSO, with final DMSO <1%. […] Selected KLZ values were determined in 1:1 v/v dioxane:water as previously described.
Spirolactonizable Si-rhodamines are particularly valuable for live cell imaging. They typically exist in a nonfluorescent, neutral cell-permeable form that can convert to a highly fluorescent form when bound to particular targets, such as DNA or the protein HaloTag®. This fluorogenic response occurs when the nonfluorescent spirolactone ring opens, generating a zwitterionic dye (Scheme 12). To date, all examples of fluorogenic Si-rhodamine dyes have been modified with targeting groups directly on the pendant phenyl ring that forms the spirolactone. It is not obvious whether this same fluorogenic behavior would also occur with dyes that are modified with targeting groups on the more distal silyl group. SiR-DNA (Spirochrome) is a commercially-available Si-rhodamine dye with the DNA-targeting ligand Hoechst 33258 attached to the pendant phenyl ring (Schemes 13A-C), allowing specific labeling of the nucleus in live cells. Therefore, two Hoechst 33258-modified Si-Bridge isomers were synthesized via direct reaction of the phenol of Hoechst 33258 with the isomeric Si-iodopropyl dyes compounds 047 and 048 (Scheme 6), and then assessed their ability to label the nucleus in live HeLa cells compared to SiR-DNA (FIGS. 2A-2C). […] To gain more insight into the molecular basis for this difference, the photophysical properties of compounds 061 and 062 were evaluated in vitro in the presence and absence of a hairpin DNA oligonucleotide (hpDNA) (Table 4). Like SiR-DNA, these dyes are quenched and virtually nonfluorescent in PBS, with quantum yields <0.02 and brightness of <130 M^−1 cm^−1.

[4] = test system: nucleus in live HeLa cells; experiment: No-wash live cell imaging of the nucleus with a Si-bridge dye; assay type: cell-based; details: confocal, Cy5 channel
Experimental: HeLa cells were cultured in Dulbecco's modified Eagle medium (DMEM, from GIBCO, catalog no. 11995065) supplemented with 10% fetal bovine serum (FBS) (GIBCO, catalog no. 10437028) and 1% penicillin-streptomycin (Sigma) at 37° C. in a 5% CO2 incubator. For imaging, cells were seeded in 35 mm glass bottom dishes (Cellvis, catalog no. D35-28-O—N). […] Dyes fluorescing in the Cy5 channel were excited with the HeNe (633 nm) laser at a 15% intensity and detected through a 640-615 band pass filter, and EGFP was excited with the Argon (488 nm) laser. Image analysis was performed using Leica LAS X SP8 software and ImageJ software.

Row | SMILES | labeling of SNAP-tag [2] | Brightness (ε × ϕ) (0.1% SDS/PBS, 2 h incubation) | ε (M^−1 cm^−1) (0.1% SDS/PBS, 2 h incubation) | λem (nm) (0.1% SDS/PBS, 2 h incubation) | λex (nm) (0.1% SDS/PBS, 2 h incubation) | ϕ (0.1% SDS/PBS, 2 h incubation) | Brightness (ε × ϕ) (Hoechst probe in PBS) | ε (M^−1 cm^−1) (Hoechst probe in PBS) | λex (nm) (Hoechst probe in PBS) | Brightness (ε × ϕ) [3] | ε (M^−1 cm^−1) [3] | λem (nm) [3] [nm] | λex (nm) [3] [nm] | ϕ [3] | brightness [3] | labeling of the nucleus in live HeLa cells [4] | further results
1 | Cc1ccccc1C1=C2C=CC(=[N+](C)C)C=C2[Si]2(CCCC2)c2cc(N(C)C)ccc21 [Compound 028, N-(7-(Dimethylamino)-10-(o-tolyl)-3H-spiro[dibenzo[b,e]siline-5,1′-silolan]-3-ylidene)-N-methylmethanaminium] | – | – | – | – | – | – | – | – | – | – | – | – | – | – | – | – | Brightness (ϕ × ε) (PBS): 54,826; Em (nm) (PBS): 671 nm; Ex (nm) (PBS): 653 nm; ε (M^−1 cm^−1) (PBS): 158,000 M^−1 cm^−1; ϕ (quantum yield) (PBS, pH 7.4): 0.35; chemical stability in solution [1]: chemically unstable in solution
2 | CN(C)c1ccc2c(c1)[Si@](C)(CCCSCC(=O)NCc1ccc(COc3nc(N)nc4[nH]cnc34)cc1)c1cc(N(C)C)ccc1[C@]21OC(=O)c2ccccc21 [Compound 065, N-(4-(((2-Amino-9H-purin-6-yl)oxy)methyl)benzyl)-2-((3-((5s,10s)-3,7-bis(dimethylamino)-5-methyl-3′-oxo-3′H,5H-spiro[dibenzo[b,e]siline-10,1′-isobenzofuran]-5-yl)propyl)thio)acetamide] | labeled SNAP-tag | – | – | – | – | – | – | – | – | – | – | – | – | – | – | – | –
3 | CN(C)c1ccc2c(c1)[Si@](C)(CCCSCC(=O)NCc1ccc(COc3nc(N)nc4[nH]cnc34)cc1)c1cc(N(C)C)ccc1[C@@]21OC(=O)c2ccccc21 [Compound 066, N-(4-(((2-Amino-9H-purin-6-yl)oxy)methyl)benzyl)-2-((3-((5r,10r)-3,7-bis(dimethylamino)-5-methyl-3′-oxo-3′H,5H-spiro[dibenzo[b,e]siline-10,1′-isobenzofuran]-5-yl)propyl)thio)acetamide] | labeled SNAP-tag | – | – | – | – | – | – | – | – | – | – | – | – | – | – | – | –
4 | CN1CCN(c2ccc3[nH]c(-c4ccc5[nH]c(-c6ccc(OCCC[Si@]7(C)c8cc(N(C)C)ccc8[C@@]8(OC(=O)c9ccccc98)c8ccc(N(C)C)cc87)cc6)nc5c4)nc3c2)CC1 [Compound 062, (5r,10r)-3,7-Bis(dimethylamino)-5-methyl-5-(3-(4-(5-(4-methylpiperazin-1-yl)-1H,1′H-[2,5′-bibenzo[d]imidazol]-2′-yl)phenoxy)propyl)-3′H,5H-spiro[dibenzo[b,e]siline-10,1′-isobenzofuran]-3′-one] | – | 64,770 | 127,000 M^−1cm^−1 | 670 | 649 | 0.51 | 90 | 10,000 M^−1cm^−1 | 663 | 10,400 | 26,000 M^−1cm^−1 | 670 | 653 | 0.40 | 10 400 M^−1 cm^−1 | highly fluorogenic, labeling only the nucleus in live cells | extinction coefficient ([3]; in the presence of 30 mM hpDNA): 26 000 M^−1 cm^−1; quantum yield ([3]; in the presence of 30 mM hpDNA): 0.40
5 | CN1CCN(c2ccc3[nH]c(-c4ccc5[nH]c(-c6ccc(OCCC[Si@]7(C)c8cc(N(C)C)ccc8[C@]8(OC(=O)c9ccccc98)c8ccc(N(C)C)cc87)cc6)nc5c4)nc3c2)CC1 [Compound 061, (5s,10s)-3,7-Bis(dimethylamino)-5-methyl-5-(3-(4-(5-(4-methylpiperazin-1-yl)-1H,1′H-[2,5′-bibenzo[d]imidazol]-2′-yl)phenoxy)propyl)-3′H,5H-spiro[dibenzo[b,e]siline-10,1′-isobenzofuran]-3′-one] | – | 10,965 | 25,500 M^−1cm^−1 | 668 | 650 | 0.43 | 130 | 6,500 M^−1cm^−1 | 660 | 550 | 5,500 M^−1cm^−1 | 672 | 658 | 0.10 | 550 M⁻¹ cm⁻¹ | no labeling of the nucleus | ϕ (Hoechst probe in PBS): 0.02
